Experimental data taken from ChEMBL document CHEMBL4602643, “Anti-inflammatory activities of isopimara-8(14),-15-diene diterpenoids and mode of action of kaempulchraols P and Q from Kaempferia pulchra rhizomes” (Bioorg Med Chem Lett, 2020).
Activity calls are given as the source filed them. The calls are words filed in the database; no cut-off is given here.

Columns and labels:
RAW264.7 [1] = experiment: Anti-inflammatory activity in mouse RAW264.7 cells assessed as inhibition of LPS-induced NO production at 50 uM relative to control; format: functional
RAW264.7 [2] = experiment: Anti-inflammatory activity in mouse RAW264.7 cells assessed as inhibition of LPS-induced NO production at 10 uM relative to control; format: functional
RAW264.7 [3] = experiment: Anti-inflammatory activity in mouse RAW264.7 cells assessed as inhibition of LPS-induced NO production at 5 uM relative to control; format: functional
RAW264.7 [4] = experiment: Anti-inflammatory activity in mouse RAW264.7 cells assessed as inhibition of LPS-induced NO production at 100 uM relative to control; format: functional
RAW264.7 [5] = experiment: Anti-inflammatory activity in mouse RAW264.7 cells assessed as inhibition of LPS-induced NO production; format: functional, cell-based
[6] = Cytotoxicity against mouse RAW264.7 cells assessed as cell survival at 5 uM; format: cell-based; conditions: read-out: Activity
[7] = Cytotoxicity against mouse RAW264.7 cells assessed as cell survival at 10 uM; format: cell-based; conditions: read-out: Activity
[8] = Cytotoxicity against mouse RAW264.7 cells assessed as cell survival at 50 uM; format: cell-based; conditions: read-out: Activity
[9] = Cytotoxicity against mouse RAW264.7 cells assessed as cell survival at 100 uM; format: cell-based; conditions: read-out: Activity
J774.1 = experiment: Anti-inflammatory activity in mouse J774.1 cells assessed as inhibition of LPS-induced NO production preincubated for 2 hrs before LPS stimulation and measured after 24 hrs by Griess method; format: functional, cell-based
RAW264.7 [10] = experiment: Cytotoxicity against mouse RAW264.7 cells assessed as reduction in cell viability; format: cell-based
RAW264.7 [11] = experiment: Inhibition of NF-kappaB activation in mouse RAW264.7 cells expressing luciferase gene at 5 to 25 uM by luciferase reporter gene assay; format: cell-based
RAW264.7 [12] = experiment: Cytotoxicity against mouse RAW264.7 cells expressing luciferase reporter gene assessed as cell survival at 5 to 25 uM; format: cell-based; conditions: raw264.7, 25 µM
RAW264.7 [13] = experiment: Inhibition of LPS-induced NF-kappaB activation in mouse RAW264.7 cells expressing luciferase gene at 5 to 25 uM by luciferase reporter gene assay; format: cell-based
RAW264.7 [14] = experiment: Inhibition of LPS-induced IL-6 production in mouse RAW264.7 cells at 25 uM by ELISA; format: functional, cell-based
RAW264.7 [15] = experiment: Antiinflammatory activity in mouse RAW264.7 cells assessed as inhibition of LPS-induced COX2 expression at 25 uM incubated for 24 hrs by Western blot analysis; format: functional, cell-based

SMILES | IC50 (RAW264.7 [5]) [µM] | IC50 (J774.1) [µM] | inhibition at 50 µM (RAW264.7 [1]) [%] | inhibition at 10 µM (RAW264.7 [2]) [%] | inhibition at 5 µM (RAW264.7 [3]) [%] | inhibition at 100 µM (RAW264.7 [4]) [%] | viability at 5 µM [6] [%] | viability at 10 µM [7] [%] | viability at 50 µM [8] [%] | viability at 100 µM [9] [%] | IC50 (RAW264.7 [10]) [µM] | inhibition (RAW264.7 [11]) | Activity (RAW264.7 [12]) | inhibition (RAW264.7 [13]) | inhibition (RAW264.7 [14]) | inhibition (RAW264.7 [15])
C=C[C@]1(C)C=C2CC[C@H]3C(C)(C)C[C@H](O)[C@H](O)[C@]3(C)[C@H]2[C@H](O)C1 | > 100 | – | 37.1 | 11.1 | 17.2 | 22.4 | 65.7 | 50.9 | 60.9 | 66.5 | – | – | – | – | – | –
C=C[C@]1(C)C=C2[C@H](O)C[C@H]3C(C)(C)CCC[C@]3(C)[C@H]2CC1 | 41.7 | – | 59.3 | 14.4 | 17.4 | 67.6 | 76.9 | 65.8 | 58.8 | 34.2 | – | – | – | – | – | –
C=C[C@]1(C)C=C2CC[C@H]3C(C)(C)C[C@H](O)[C@H](O)[C@]3(C)[C@H]2CC1 | 100 | – | 37.1 | 9.37 | 4.21 | 49.2 | 113 | 70.4 | 70.6 | 73.5 | – | – | – | – | – | –
C=C[C@]1(C)C=C2C[C@@H](O)[C@H]3C(C)(C)[C@H](O)C[C@H](O)[C@]3(C)[C@H]2CC1 | > 100 | – | 34.3 | 15.2 | 9.01 | 24.1 | 104 | 113 | 89.4 | 101 | – | – | – | – | – | –
C=C[C@]1(C)C=C2[C@H](OC(C)=O)[C@@H](O)[C@H]3C(C)(C)CCC[C@]3(C)[C@H]2CC1 | 32.8 | – | 80.3 | 9.88 | -0.32 | 82.1 | 100 | 107 | 6.17 | 3.73 | 32.6 | – | – | – | – | –
C=C[C@@]1(C)C=C2CC[C@@H]3C(C)(C)C[C@@H](O)C[C@@]3(C)[C@@H]2CC1 | 48.7 | – | 50.8 | 7.09 | 3.43 | 81.8 | 97.5 | 115 | 114 | 4.35 | – | – | – | – | – | –
C=C[C@]1(C)C=C2C(=O)C[C@H]3C(C)(C)CCC[C@]3(C)[C@@]2(O)CC1 | > 100 | – | 40.1 | 32.5 | 33.3 | 41.6 | 93.3 | 83.3 | 50.7 | 45.8 | – | – | – | – | – | –
C=C[C@]1(C)C=C2C(=O)C[C@H]3C(C)(C)CC[C@H](O)[C@]3(C)[C@H]2CC1 | > 100 | – | 25.1 | 7.8 | 16.5 | 35.5 | 86.6 | 92.4 | 86.8 | 77.8 | – | – | – | – | – | –
C=C[C@@]1(C)C[C@@H](OC(=O)c2ccccc2)[C@@H]2[C@@]3(C)C=C(O)C(=O)C(C)(C)[C@@H]3C[C@@H](OC(C)=O)[C@@]2(O)C1=O | – | 14.4 | – | – | – | – | – | – | – | – | – | – | – | – | – | –
C=C[C@]1(C)C=C2CC[C@H]3C(C)(C)CC[C@H](O)[C@]3(C)[C@H]2CC1 | 53.8 | – | 47.5 | 14 | 27.2 | 80.5 | 57.7 | 77.4 | 67.6 | 3.78 | – | – | – | – | – | –
C=C[C@]1(C)C=C2C[C@@H](O)[C@H]3C(C)(C)CCC[C@]3(C)[C@H]2CC1 | 39.9 | – | 65.6 | 3.82 | 9.97 | 81.7 | 98.7 | 149 | 109 | 66.8 | – | Active | Non-Toxic | Active | Active | Active
C=C[C@]1(C)C=C2C[C@@H](O)[C@H]3C(C)(C)CCC[C@]3(C)[C@@]2(OC)CC1 | 56.2 | – | 46.6 | 10.8 | 4.09 | 74.2 | 121 | 104 | 110 | 37.6 | – | – | – | – | – | –
C=C[C@]1(C)C=C2C[C@@H](O)[C@H]3C(C)(C)CC[C@H](O)[C@]3(C)[C@H]2CC1 | > 100 | – | 35.2 | 17.7 | 17.4 | 26.3 | 72.9 | 65.7 | 52.2 | 67 | – | – | – | – | – | –
C=C[C@]1(C)C=C2C[C@@H](OC(C)=O)[C@H]3C(C)(C)CCC[C@]3(C)[C@@]2(O)CC1 | > 100 | – | 7.9 | 9.03 | 17.7 | -3.85 | 76.9 | 82 | 68.8 | 76 | – | – | – | – | – | –

Second part, led by results:

IC50 (RAW264.7 [5]) [µM] | IC50 (J774.1) [µM] | SMILES | inhibition at 50 µM (RAW264.7 [1]) [%] | inhibition at 10 µM (RAW264.7 [2]) [%] | inhibition at 5 µM (RAW264.7 [3]) [%] | inhibition at 100 µM (RAW264.7 [4]) [%] | viability at 5 µM [6] [%] | viability at 10 µM [7] [%] | viability at 50 µM [8] [%] | viability at 100 µM [9] [%] | IC50 (RAW264.7 [10]) [µM] | inhibition (RAW264.7 [11]) | Activity (RAW264.7 [12]) | inhibition (RAW264.7 [13]) | inhibition (RAW264.7 [14]) | inhibition (RAW264.7 [15])
– | 20.5 | C=C[C@]1(C)C[C@@H](OC(=O)c2ccccc2)[C@H]2[C@](O)(C1=O)[C@H](OC(C)=O)C[C@H]1C(C)(C)[C@H](OC(C)=O)[C@H](O)[C@H](OC(=O)c3ccccc3)[C@@]12C | – | – | – | – | – | – | – | – | – | – | – | – | – | –
65.5 | – | CNC(=N)NCCC[C@H](N)C(=O)O [TILARGININE ACETATE] | 46.3 | 27 | 22.8 | 58.2 | 112 | 92.6 | 107 | 103 | – | – | – | – | – | –
> 100 | – | C=C[C@]1(C)C=C2CC[C@H]3C(C)(C)C[C@H](O)[C@H](O)[C@]3(C)[C@@]2(O)CC1 | 21 | 7.8 | 18.1 | 20.8 | 85.7 | 85.3 | 27.5 | 27.6 | – | – | – | – | – | –
41.5 | – | C=C[C@]1(C)C=C2[C@H](OC(C)=O)C[C@H]3C(C)(C)CCC[C@]3(C)[C@@]2(O)CC1 | 59.5 | 14.9 | 20.7 | 80.5 | 71.5 | 98.3 | 88.7 | 4.72 | – | – | – | – | – | –
– | 11.5 | C=C[C@]1(C)C[C@@H](OC(=O)c2ccccc2)[C@H]2[C@](O)(C1=O)[C@H](OC(C)=O)C[C@H]1C(C)(C)[C@H](O)[C@H](OC(C)=O)[C@H](OC(=O)c3ccccc3)[C@@]12C | – | – | – | – | – | – | – | – | – | – | – | – | – | –
95.3 | – | C=C[C@]1(C)C=C2CC[C@H]3C(C)(C)CC[C@H](O)[C@]3(C)[C@H]2[C@H](O)C1 | 46.6 | 6.28 | 13.4 | 50.4 | 78.4 | 86.7 | 35.9 | 27.8 | – | – | – | – | – | –
> 100 | – | C=C[C@]1(C)C=C2[C@@H](O)C[C@H]3C(C)(C)CCC[C@]3(C)[C@@]2(O)CC1 | 5.89 | 14.8 | 18.4 | -5.96 | 114 | 98.8 | 73.3 | 71.3 | – | – | – | – | – | –
> 100 | – | C=C[C@]1(C)C=C2[C@@H](OC(C)=O)[C@@H](O)[C@H]3C(C)(C)CCC[C@]3(C)[C@@]2(O)CC1 | 24.9 | 16.7 | 21.4 | 47.5 | 89.3 | 84.7 | 85.7 | 70.3 | > 50 | – | – | – | – | –
> 100 | – | C=C[C@]1(C)C=C2CC[C@H]3C(C)(C)[C@H](O)C[C@H](O)[C@]3(C)[C@H]2CC1 | 33.4 | 13.3 | 5.57 | 33.8 | 104 | 85.1 | 50 | 47.7 | – | – | – | – | – | –
48.4 | – | C=C[C@]1(C)C=C2[C@@H](O)[C@@H](O)[C@H]3C(C)(C)CCC[C@]3(C)[C@@]2(O)CC1 | 51.4 | 16.9 | 5.03 | 60.4 | 140 | 81.2 | 60.2 | 22.1 | > 50 | – | – | – | – | –
